Some test systems named below: SNB-78; KM-20L2; HOP-18; XF498; LXFL 529; BT-549; DMS-273; M19-MEL.
Common to all, as to experiment: NCI anticancer screen, dose series, 48 h

SMILES strings stand for the structures.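 Interpolation was linear, between the two tested concentrations surrounding the appropriate level; five concentrations were tested over 48 hours in 96-well plates. GI50: concentration for 50% inhibition of growth.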 Activity calls are given as the source filed them. Rule as the data show it: active = GI50 up to about 1.1 µM and inactive = higher. A value given as a limit tells only on which side of the number the result lay.

Turning to `COC(=O)/C(C#N)=C1\CCC(Nc2cccc(C(F)(F)F)c2)N1C` (stereo not given), the GI50 is > 100 µM (inactive) in the experiment on SNB-78; 56 µM (inactive) in the experiment with KM-20L2; > 100 µM (inactive) with HOP-18; 66.2 µM (inactive) with XF498; 74 µM (inactive) in the experiment on LXFL 529.

For `CC[C@@]1(O)CC(OC2CC(N3CCOCC3)C(O)C(C)O2)c2c(O)c3c(c(O)c2[C@H]1O)C(=O)c1cccc(O)c1C3=O` (stereo not given in full), the GI50 in the experiment on SNB-78 is 0.305 µM (active); with KM-20L2, 0.191 µM (active); in the experiment with HOP-18, 0.237 µM (active); in the experiment with BT-549, 0.0508 µM (active); in the experiment on XF498, 0.0493 µM (active); with DMS-273 it was 0.0358 µM (active). Further, the GI50 in the experiment with M19-MEL is 0.101 µM (active).

In the case of `O=C(NO)C12C3C4C1C1C2C3C41C(=O)NO` (stereo not given), the GI50 with SNB-78 is > 100 µM (inactive); in the experiment with KM-20L2, > 100 µM (inactive); with HOP-18, > 100 µM (inactive); with DMS-273, > 100 µM (inactive); in the experiment with LXFL 529, 37.2 µM (inactive); in the experiment with M19-MEL it was > 100 µM (inactive).

Consider `O=C1/C(=N\O)c2ccccc2S1(=O)=O`, for which the GI50 in the experiment on SNB-78 is > 100 µM (inactive); in the experiment with KM-20L2 it was > 100 µM (inactive); in the experiment with HOP-18, > 100 µM (inactive); in the experiment on DMS-273 it was > 100 µM (inactive); in the experiment with LXFL 529 it was 69.2 µM (inactive); with M19-MEL, > 100 µM (inactive).

Turning to `COC(=O)c1cc(=O)nc2cc3cccccc3n12`, the GI50 in the experiment on KM-20L2, in the experiment with HOP-18, in the experiment with XF498, in the experiment with LXFL 529 and with M19-MEL was > 100 µM (inactive) each time.

For the compound `COc1cc2c(cc1OC)-c1cc(OC)c(OC)cc1[C@H]1CN3CCC[C@@]3(O)C=C21`, the GI50 with SNB-78, in the experiment on KM-20L2, in the experiment with HOP-18, in the experiment with XF498, in the experiment on DMS-273 and in the experiment on LXFL 529 was < 0.0001 µM (active) in each case. Further, the GI50 in the experiment with M19-MEL was < 0.0001 µM (active).

For the compound `O=C(/C(=C\c1ccc(Cl)cc1)c1ccccc1)c1ccccc1`, the GI50 in the experiment on SNB-78 was > 100 µM (inactive); in the experiment on HOP-18, > 100 µM (inactive); in the experiment with XF498, 37.6 µM (inactive); in the experiment with LXFL 529, 55.5 µM (inactive).

Take `CSc1c([S+](C)[O-])[nH]c2cc(Br)cc(Br)c12` (stereo not given): the GI50 in the experiment on SNB-78 is 19.3 µM (inactive); with HOP-18, 39.5 µM (inactive); with DMS-273 it was 16.4 µM (inactive); in the experiment with LXFL 529, 21.1 µM (inactive); with M19-MEL it was 29.2 µM (inactive).

For the compound `CN1CN(C2OC(CO)C(O)C2O)c2nc(N)[nH]c(=O)c21` (stereo not given), the GI50 in the experiment on SNB-78, with KM-20L2, with HOP-18, with XF498, with DMS-273 and in the experiment with LXFL 529 was > 100 µM (inactive) throughout. The GI50 in the experiment on M19-MEL was > 100 µM (inactive).

`C[C@]12CC/C(=N\O)C=C1CC[C@@H]1C2CC[C@@]2(C)C1CC[C@@H]2OC1CCCCO1` (stereo not given in full): the GI50 in the experiment with SNB-78 was 19.1 µM (inactive); with KM-20L2, 14.4 µM (inactive); in the experiment with HOP-18, 16.4 µM (inactive); in the experiment on DMS-273, 17.7 µM (inactive); in the experiment with LXFL 529, 17.2 µM (inactive); in the experiment on M19-MEL, 19.1 µM (inactive).

On to `COc1ccc(NC(=O)CC/C(CC(=O)c2ccco2)=N/NC(=O)C(N)=O)cc1`, for which the GI50 with KM-20L2 is > 100 µM (inactive); in the experiment with HOP-18, > 100 µM (inactive); in the experiment on XF498, 82.8 µM (inactive); with DMS-273 it was > 100 µM (inactive); with LXFL 529, 65.5 µM (inactive); in the experiment with M19-MEL, 74.6 µM (inactive).

As to `CCC(C)(O)c1cn(-c2ccc(Cl)cc2)nn1` (stereo not given), the GI50 with SNB-78, in the experiment with KM-20L2, in the experiment with HOP-18, in the experiment on DMS-273, with LXFL 529 and in the experiment with M19-MEL was > 100 µM (inactive) in each case.

(Values after ChEMBL document CHEMBL1201862, “PubChem BioAssay data set” (2004).)
